Measured values from patent publication US5968933A, “DNA-targeted alkylating agents” (Auckland Division Cancer Society of New Zealand Inc., priority 1994, dated 1999).
Entries after “also recorded” stand apart in the source; their conditions may differ.

Experiments:
[1] = system: P338 murine leukaemia; assay type: in vivo, mice; conditions: for in vivo antitumour activity: P388, single-dose protocol; for Optimal dose / average number of animals in a group of six which were long-term survivors: single i.p. dose; for % Increase in lifespan: single i.p. dose 24 h after tumour inoculation, at optimal dose (mg/kg: 1 30; 2 30; 3 13.3; 4 3.9; 5 5.9; 6 8.9); for average number of animals in a group of six which were long-term survivors: optimal dose
[2] = system: calf thymus DNA; experiment: Rate of alkylation of calf thymus DNA by increase in DNA-bound fluorescence; assay type: biochemical; design: unit not given here
[3] = system: S. typhimurium TA102; experiment: Bacterial mutagenicity, plate incorporation assay, TA102; conditions: mean ± SD
[4] = system: S. typhimurium TA98; experiment: Bacterial mutagenicity, plate incorporation assay, TA98; conditions: mean ± SD
[5] = system: calf thymus DNA; experiment: Reversible DNA binding by spectrophotometric Scatchard analysis; conditions: 20° C., 0.01M HEPES buffer, pH 7.00
[6] = system: Saccharomyces cerevisiae strain D5; conditions: for aberrant colonies in yeast / mitotic crossing-over: yeast strain D5, in words
[7] = system: S. typhimurium TA100; experiment: Bacterial mutagenicity, plate incorporation assay, TA100; conditions: for reversion colonies, TA100: mean ± SD; for mutagenicity in TA100: statistical analysis
[8] = system: P388 cells; experiment: Growth inhibition in vitro, P388 leukaemia; assay type: cell-based, murine; conditions: for IC50: P388 cells, 72 h, MTT, read-out: IC50
Procedure: (§1) Representative examples of compounds of the invention were tested for biological activity against tumors. Compounds 1 to 6 and 14 to 21, prepared as described above, were tested for their ability to inhibit growth in vitro of cells of the wild-type murine leukaemia cell line P388, and the cell line AA8 which is derived from Chinese hamster ovary cells. For each compound, the IC50, ie. the concentration of compound which inhibited cell growth in treated cultures to 50% of that of controls, was determined, using means of three determinations. In addition, a hypersensitivity factor was determined by comparing activity of the compounds against AA8 cells to activity against UV4. The latter cell line is deficient in aspects of the excision repair pathway for removing DNA adducts, and is hypersensitive to DNA-alkylating agents, especially interstrand crosslinking agents. Previous work has shown that the ratio of IC50 s determined in the wild-type AA8 and mutant UV4 lines (the hypersensitivity factor HF) is a determinant of the mode of cell killing by alkylating agents (Palmer, B. D. et al, J. Med. Chem., 1990 33 112-121; Wilson, W. R. et al, J. Med. Chem., 1989 32 31-38). Compounds with HFs of ca. 1 are unlikely to kill cells via DNA alkylation events. Compounds which show high HF values are likely to form bulky adducts or cross-links,with the latter being especially likely for compounds showing the highest HF values (>ca. 25) (Wilson et al, op. cit.).
(§2) Cell lines were maintained in exponential growth phase by subculturing in RPMI 1640 (P338) or Alpha MEM (AA8, UV4) containing 10% fetal calf serum, as previously described (Palmer et al, op.cit.; Baguley, B. C. and Wilson, W. R., Eur. J. Cancer Clin. Oncol., 1987 23 607-613). IC50 values were determined using log-phase cultures in 96-well microculture plates, and were calculated as the nominal drug concentration required to reduce the cell density to 50% of control values, using 8 control cultures on each microplate. For P388 cultures, drug was present throughout the growth period (72 h), and final cell densities were determined using a minor modification of the MTT method of Mossman (Mossman, T., J. Immunol. Methods, 1983 65 55-63). For AA8 and UV4 cultures, drug exposure was terminated after 18 h by washing three times with fresh medium. Cultures were then grown for a further 72 h before determining cell density by staining with methylene blue (Finlay, G. J. et al, Anal. Biochem., 1984 139 272-277).

[9] = system: AA8 and UV4 cells; experiment: Hypersensitivity factor (AA8/UV4 IC50 ratio); assay type: cell-based, Chinese hamster; conditions: ratio of IC50s AA8/UV4
Procedure: as §1, §2

[10] = system: S. typhimurium strains
[11] = system: AA8 cells; experiment: Growth inhibition in vitro, AA8; assay type: cell-based, Chinese hamster; conditions: for IC50: AA8 cells, 18 h exposure, then 72 h growth, methylene blue, read-out: IC50
Procedure: as §1, §2

[12] = system: linearized pSV2gpt DNA; experiment: DNA crosslinking assay (agarose gel electrophoresis of linearized plasmid); assay type: biochemical; conditions: 2 h at 30° C., TE-80 buffer pH 8
Procedure: The ability of representative compounds of the invention to bind to and cross-link DNA was examined. This was carried out by agarose gel electrophoresis of plasmid DNA using linearized pSV2gpt DNA (Tindall, K. R. and Stankowski, L. F.; Mutation Research, 1989 220 241-245) and the method reported by Valu et al, 1990, op.cit. Briefly, linearized pSV2gpt DNA (1 μL of a 1 mg/mL solution) was incubated with drug in TE-80 buffer (10 mM Tris.HCl, 1 mM EDTA at pH 8), shielded from ambient light, for 2 h at 30° C., then denatured by the addition of […] of 1% sodium dodecyl sulfate and 10 μL of 50 mM methylmercury hydroxide and incubated for a further 30 min at 20° C. in the dark. Renaturation of drug-treated DNA samples was carried out by incubation with 2.5 μL of 2-mercaptoethanol for 1 h. Samples were prepared for electrophoresis by the addition of 0.1 mg/mL bromophenol blue, 0.5 μg/mL ethidium bromide and 5 μL of 40% sucrose. Electrophoresis was carried out at 120V in 89 mM tris/borate buffer at pH 8 containing 2 mM EDTA and 0.5 μg/mL ethidium bromide. DNA was visualized using 302 nm trans-illumination, and was photographed using Polaroid type 55 film and a Wratten 3A filter.
After drug treatment, DNA is denatured to the single stranded form, which runs as a lower band in the gels (see lanes 1 and 2 in FIG. 1). Cross-linking by the drugs is evidenced by the appearance of increasing amounts of renatured, double stranded DNA, as shown by the upper band in the gels, corresponding to the band for untreated DNA seen in lane 1.

[13] = 80 μg/plate, square brackets: toxicity becoming apparent
[14] = 40 μg/plate, square brackets: toxicity becoming apparent
[15] = 120 μg/plate, square brackets: toxicity becoming apparent
[16] = compound 4 versus compounds 2 and 3

Compound | in vivo antitumour activity [1] | Optimal dose [1] [mg/kg] | % Increase in lifespan [1] | Rate constant for alkylation [2] | reversion colonies, TA102 ([3]; 4 μg/plate) | reversion colonies, TA102 ([3]; 10 μg/plate) | reversion colonies, TA102 ([3]; 20 μg/plate) | reversion colonies, TA98 ([4]; 4 μg/plate) | reversion colonies, TA98 ([4]; 10 μg/plate) | reversion colonies, TA98 ([4]; 20 μg/plate) | reversion colonies, TA98 ([4]; 40 μg/plate) | Site size (Number of nucleotide residues) [5] [nucleotide residues] | reversion colonies, TA100 ([7]; 4 μg/plate) | reversion colonies, TA100 ([7]; 10 μg/plate) | reversion colonies, TA100 ([7]; 20 μg/plate) | reversion colonies, TA100 ([7]; 40 μg/plate) | reversion colonies, TA100 ([7]; 80 μg/plate) | IC50 [8] [nM] | Hypersensitivity factor [9] | IC50 [11] [nM] | other results
CN1CCN(c2ccc3nc(-c4ccc5nc(-c6ccc(N(CCCl)CCCl)cc6)[nH]c5c4)[nH]c3c2)CC1 [Compound 2, 2-[2-[4-(N,N-bis(2-chloroethyl)amino)phenyl]-5-benzimidazolyl]-5-(1-methyl-4-piperazinyl)benzimidazole] | highest activity | 30 | 106% | 1.78 × 10^4 | 408 ± 31 | 371 ± 14 | 280 ± 14 | 61 ± 3 | 68 ± 2 | 58 ± 1 | 52 ± 7 | 2.6 | 173 ± 7 | 175 ± 17 | 167 ± 28 | 210 ± 20 | 192 ± 1 | 800 | 24 | 1680 | average number of animals in a group of six which were long-term survivors [1]: 2 animals; reversion colonies, TA98 [4, 13]: 55 ± 2; petite (mitochondrial) mutagenesis [6]: inactive; bacterial mutagenicity [10]: inactive as a bacterial mutagen; Cross-linking [12]: No
CN1CCN(c2ccc3nc(-c4ccc5nc(Cc6ccc(N(CCCl)CCCl)cc6)[nH]c5c4)[nH]c3c2)CC1 [Compound 3, 2-[2-[[4-(N,N-bis(2-chloroethyl)amino)phenyl]methyl]-5-benzimidazolyl]-5-(1-methyl-4-piperazinyl)benzimidazole] | retained significant in vivo activity | 13.3 | 71% | 3.01 × 10^4 | 297 ± 38 | 237 ± 64 | 304 ± 16 | 71 ± 2 | 83 ± 1 | 87 ± 6 | 86 ± 5 | 3.0 | 154 ± 8 | 130 ± 10 | 137 ± 43 | 167 ± 24 | 167 ± 8 | 850 | 59 | 1500 | reversion colonies, TA102 [3, 14]: 268 ± 59; reversion colonies, TA102 [3, 15]: 505 ± 121; reversion colonies, TA98 [4, 13]: 77 ± 10; reversion colonies, TA98 [4, 15]: 86 ± 8; reversion colonies, TA100 [7, 15]: 157 ± 12; Cross-linking [12]: No
CN1CCN(c2ccc3nc(-c4ccc5nc(CCc6ccc(N(CCCl)CCCl)cc6)[nH]c5c4)[nH]c3c2)CC1 [Compound 4, 2-[2-[2-[4-(N,N-bis(2-chloroethyl)amino)phenyl]ethyl]-5-benzimidazolyl]-5-(1-methyl-4-piperazinyl)benzimidazole] | retained significant in vivo activity | 3.9 | 52% | 4.62 × 10^4 | 340 ± 26 | 366 ± 49 | 429 ± 17 | 71 ± 2 | 74 ± 10 | 75 ± 1 | 65 ± 6 | 2.8 | 172 ± 4 | 231 ± 7 | 264 ± 12 | 237 ± 29 | 207 ± 10 | 10 | 47 | 330 | average number of animals in a group of six which were long-term survivors [1]: 1 animals; reversion colonies, TA102 [3, 14]: 465 ± 41; reversion colonies, TA102 [3, 13]: 609 ± 74; aberrant colonies in yeast [6]: some aberrant colonies; mitotic crossing-over [6]: weak mitotic crossing-over; reversion colonies, TA100 [7, 15]: 232 ± 19; mutagenicity in TA100 [7]: could be considered to show a mutagenic effect in TA100; also recorded: mutagenic ability; increase in cytotoxicity in P388 [8, 16]: 80 fold; increase in cytotoxicity in AA8 [11, 16]: 5 fold; Cross-linking [12]: No
CN1CCN(c2ccc3nc(-c4ccc5nc(CCCc6ccc(N(CCCl)CCCl)cc6)[nH]c5c4)[nH]c3c2)CC1 [Compound 5, 2-[2-[3-[4-(N,N-bis(2-chloroethyl)amino)phenyl]propyl]-5-benzimidazolyl]-5-(1-methyl-4-piperazinyl)benzimidazole] | inactive in vivo at all doses up to the maximum tolerable dose | 5.9 | not active | 6.52 × 10^4 | 342 ± 32 | 392 ± 31 | 368 ± 32 | 63 ± 2 | 62 ± 1 | 71 ± 13 | 62 ± 3 | 3.0 | 188 ± 15 | 180 ± 5 | 205 ± 14 | 240 ± 7 | 258 ± 21 | 20 | 46 | 1320 | reversion colonies, TA102 [3, 14]: 327 ± 17; reversion colonies, TA102 [3, 13]: 480 ± 17; reversion colonies, TA102 [3, 15]: 607 ± 28; reversion colonies, TA98 [4, 13]: 63 ± 9; reversion colonies, TA98 [4, 15]: 71 ± 1; aberrant colonies in yeast [6]: some aberrant colonies; mitotic crossing-over [6]: weak mitotic crossing-over; mutagenicity in TA100 [7]: could be considered to show a mutagenic effect in TA100; also recorded: mutagenic ability; Cross-linking [12]: No
